Like-named read-outs stand apart in the source and are kept apart here. Blank lines part the entries; values can stand above or below the molecule they belong to.
Experiments:
[1] = tested on: CDK1; conditions: Table 1, known inhibitors; roscovitine value for racemic mixture; cited from earlier work
[2] = target: epidermal growth factor receptor tyrosine kinase (Homo sapiens, UniProt P00533); conditions: Table 1, known inhibitors; read-out: IC50 Tyrosine-kinase (EGF-R); cited from earlier work
[3] = tested on: MAPK; conditions: Table 1, known inhibitors; cited from earlier work
[4] = tested on: PKC; conditions: Table 1, known inhibitors; cited from earlier work
[5] = tested on: cdc25; test: cdc25 inhibition (specificity panel); assay type: biochemical; conditions: Table 3
[6] = tested on: PKC; test: PKC inhibition (specificity panel); assay type: biochemical; conditions: Ca2+-dependent protein kinase, Table 3
[7] = compared with indirubine; cited from earlier work
[8] = target: p34^cdc2/cyclinB; test: p34cdc2/cyclin B kinase assay (histone H1 phosphorylation, [γ-32P] ATP); assay type: biochemical, starfish (Marthasterias glacialis)
Description: J. Biochem., 243, (1997), 527-536). […] After 10 min. incubation at 30°C, 25 μl aliquots of supernatant were spotted onto 2.5 x 3 cm pieces of Whatman P81 phosphocellulose paper, and after 20 sec., the filters were washed five times (for at least 5 min. each time) in a solution of 10 ml phosphoric acid/liter of water. The wet filters were transferred into 6 ml plastic scintillation vials, 5 ml ACS (Amersham) scintillation fluid was added and the radioactivity measured in a Packard scintillation counter.

[9] = target: CDK4/ cyclin D1 (Homo sapiens, UniProt P11802); test: kinase inhibition selectivity, CDK4/cyclin D1; assay type: biochemical
Chain of CDK4/ cyclin D1 (P11802 whole entry, species assumed): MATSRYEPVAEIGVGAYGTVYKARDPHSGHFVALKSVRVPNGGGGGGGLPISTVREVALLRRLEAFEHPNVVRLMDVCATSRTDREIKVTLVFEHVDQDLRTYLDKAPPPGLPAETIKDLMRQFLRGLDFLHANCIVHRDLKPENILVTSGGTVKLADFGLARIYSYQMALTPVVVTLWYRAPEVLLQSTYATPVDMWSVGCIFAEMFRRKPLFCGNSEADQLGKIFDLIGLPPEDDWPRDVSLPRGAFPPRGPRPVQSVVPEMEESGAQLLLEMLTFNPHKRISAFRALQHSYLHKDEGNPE
Chain of CDK4/ cyclin D1 (P24385 whole entry partner, species assumed): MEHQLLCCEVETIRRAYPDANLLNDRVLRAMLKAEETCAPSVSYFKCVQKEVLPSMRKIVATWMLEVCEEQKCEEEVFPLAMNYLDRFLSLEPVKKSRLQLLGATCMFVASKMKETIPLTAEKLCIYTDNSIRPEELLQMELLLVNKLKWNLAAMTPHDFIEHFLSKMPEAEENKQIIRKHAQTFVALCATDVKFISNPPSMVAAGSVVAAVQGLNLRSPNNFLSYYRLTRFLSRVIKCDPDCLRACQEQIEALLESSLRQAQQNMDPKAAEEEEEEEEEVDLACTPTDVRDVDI

[10] = target: CDK5/ p35 (Homo sapiens, UniProt Q00535); test: kinase inhibition selectivity, CDK5/p35; assay type: biochemical
Chain of CDK5/ p35 (Q00535 whole entry, species assumed): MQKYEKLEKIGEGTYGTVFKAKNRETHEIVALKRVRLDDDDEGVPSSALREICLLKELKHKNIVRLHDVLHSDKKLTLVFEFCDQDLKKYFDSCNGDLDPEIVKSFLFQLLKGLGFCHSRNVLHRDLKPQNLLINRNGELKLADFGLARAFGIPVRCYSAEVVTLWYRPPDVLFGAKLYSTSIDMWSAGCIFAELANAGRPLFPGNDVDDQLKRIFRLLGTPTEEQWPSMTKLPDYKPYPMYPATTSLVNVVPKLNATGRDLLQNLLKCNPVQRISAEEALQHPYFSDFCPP
Chain of CDK5/ p35 (Q15078 whole entry partner, species assumed): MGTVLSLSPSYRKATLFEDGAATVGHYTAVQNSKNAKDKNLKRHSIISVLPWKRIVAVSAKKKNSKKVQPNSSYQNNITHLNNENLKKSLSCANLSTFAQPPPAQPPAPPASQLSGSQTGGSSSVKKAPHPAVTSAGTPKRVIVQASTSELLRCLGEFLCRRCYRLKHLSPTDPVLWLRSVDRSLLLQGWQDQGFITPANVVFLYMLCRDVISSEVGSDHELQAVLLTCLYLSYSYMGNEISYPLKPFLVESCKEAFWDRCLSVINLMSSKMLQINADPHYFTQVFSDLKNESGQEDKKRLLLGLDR

[11] = target: CDK2/ cyclin E (Homo sapiens, UniProt P24941); test: biochemical
[12] = target: CDK2/ cyclin A (Homo sapiens, UniProt P24941); test: biochemical
[13] = tested on: MCF-7 mammary carcinoma cells; test: cell cycle arrest in cell culture; assay type: cell-based, human
Description: (§1) An inhibition of p34^cdc2-kinase by indigoid bisindole derivatives is not described in the prior art. […] In concentrations ≥ 5 µM, an additional arrest at G2/M-phase of the cell cycle became apparent.

[14] = tested on: CDK1/cyclin B; test: histone H1 phosphorylation as a measure for CDK1/cyclin B activity in cell culture; assay type: cell-based, human; conditions: after 24 h incubation of MCF-7 mammary carcinoma cells
From the text: An inhibition of p34^cdc2-kinase by indigoid bisindole derivatives is not described in the prior art.

[15] = tested on: MCF-7 mammary carcinoma cells; test: induction of apoptotic cell death in cell culture; assay type: cell-based, human
Description: as §1

[16] = tested on: MCF-7 mammary carcinoma cells; test: growth inhibition in cell culture; assay type: cell-based; conditions: Homo sapiens, MCF7, 72 h; after 3 days incubation; 50% growth inhibition as compared to vehicle control
Description: as §1

[17] = tested on: PKG; conditions: Table 1, known inhibitors; cited from earlier work
[18] = tested on: chronic myelogenous leukemia; conditions: cases of chronic myelogenous leukemia; cited from earlier work
[19] = cdc2 kinase, Table 3, read-out: IC50 cdc2
[20] = calculated from dose response curves, Table 4, read-out: IC50 CDK1/ cyclin B
[21] = cells arrested by serum deprivation, treatment for 24 h in serum containing medium
[22] = calculated from dose response curves, Table 4, read-out: IC50 CDK5/ p35

Chain of epidermal growth factor receptor tyrosine kinase (P00533 25-1210): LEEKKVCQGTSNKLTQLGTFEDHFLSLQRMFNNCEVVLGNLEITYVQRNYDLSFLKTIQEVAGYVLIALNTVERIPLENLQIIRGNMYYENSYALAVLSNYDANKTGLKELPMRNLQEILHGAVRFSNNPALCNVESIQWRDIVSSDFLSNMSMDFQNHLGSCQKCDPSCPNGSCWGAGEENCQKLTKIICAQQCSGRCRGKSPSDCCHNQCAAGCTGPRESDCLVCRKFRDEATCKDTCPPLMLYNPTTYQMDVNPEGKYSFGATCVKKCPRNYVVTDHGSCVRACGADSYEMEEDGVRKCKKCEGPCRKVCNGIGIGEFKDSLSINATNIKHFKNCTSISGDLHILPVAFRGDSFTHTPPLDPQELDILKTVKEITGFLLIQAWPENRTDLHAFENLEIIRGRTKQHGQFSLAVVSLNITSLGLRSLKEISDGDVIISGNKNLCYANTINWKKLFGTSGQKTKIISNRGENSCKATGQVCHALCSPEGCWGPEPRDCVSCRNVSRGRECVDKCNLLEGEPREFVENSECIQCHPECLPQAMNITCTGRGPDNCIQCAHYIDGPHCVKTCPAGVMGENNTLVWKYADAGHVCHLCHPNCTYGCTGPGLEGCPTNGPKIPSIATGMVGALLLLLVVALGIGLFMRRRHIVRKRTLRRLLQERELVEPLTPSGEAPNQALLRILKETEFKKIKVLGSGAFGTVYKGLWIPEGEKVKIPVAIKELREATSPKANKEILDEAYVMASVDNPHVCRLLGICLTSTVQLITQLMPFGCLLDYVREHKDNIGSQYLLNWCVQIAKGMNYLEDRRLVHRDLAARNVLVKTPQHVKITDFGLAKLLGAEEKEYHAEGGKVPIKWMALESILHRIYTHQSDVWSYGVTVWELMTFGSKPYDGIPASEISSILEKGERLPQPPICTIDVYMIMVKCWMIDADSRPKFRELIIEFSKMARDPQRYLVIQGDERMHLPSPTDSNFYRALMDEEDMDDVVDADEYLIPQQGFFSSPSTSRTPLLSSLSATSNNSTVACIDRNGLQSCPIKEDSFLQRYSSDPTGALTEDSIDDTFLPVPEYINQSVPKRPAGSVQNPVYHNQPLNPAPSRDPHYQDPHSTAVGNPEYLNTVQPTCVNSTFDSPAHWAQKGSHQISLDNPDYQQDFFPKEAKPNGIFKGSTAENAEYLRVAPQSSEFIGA

SMILES: Cc1c2ccncc2c(C)c2c1[nH]c1ccc(O)cc12 [9-Hydroxy-ellipticine, 9-Hydroxyellipticin]
- IC50 [1]: ~1 µM

SMILES: COC(=O)C1(Cc2ccc(O)c(CC=C(C)C)c2)OC(=O)C(O)=C1c1ccc(O)cc1 (stereo not drawn) [Butyro-lactone-I, Butyrolactone-I]
- IC50 [2]: > 590 µM
- IC50 [3]: 94 µM
- IC50 [4]: 160 µM

SMILES: O=C1Nc2ccc(I)cc2/C1=C1/Nc2ccccc2C1=O [Example 2, 5-Iodoindirubine]
- IC50 [5]: 130 µM
- IC50 PKC [6]: no Effect
- antitumor activity [7]: superior to that of indirubine
- IC50 [8, 19]: 0.3 µM

- IC50 [5]: 32 µM
- IC50 [8, 19]: 0.35 µM
SMILES: O=C1Nc2ccc(Br)cc2/C1=C1/Nc2ccccc2C1=O [Example 3, 5-Bromoindirubine]

SMILES: O=C1Nc2ccc(Cl)cc2/C1=C1/Nc2ccccc2C1=O [Example 4, 5-Chloroindirubine]
- IC50 [9]: 6.5 µM
- IC50 [10]: 0.8 µM
- IC50 [11]: 0.55 µM
- IC50 [12]: 0.75 µM
- IC50 [5]: 55 µM
- IC50 [8, 20]: 0.4 µM
- IC50 [8, 19]: 0.4 µM

SMILES: O=C1Nc2ccc(F)cc2/C1=C1/Nc2ccccc2C1=O [Example 5, 5-Fluoroindirubine]
- IC50 [5]: 70 µM
- IC50 [8, 19]: 2 µM

SMILES: Cc1ccc2c(c1)C(=C1Nc3ccccc3C1=O)C(=O)N2 [Example 6, 5-Methylindirubine]
- IC50 [5]: 60 µM
- IC50 [8, 19]: 0.8 µM

- IC50 [5]: 60 µM
- IC50 [8, 19]: 2.2 µM
SMILES: O=C1Nc2ccc([N+](=O)[O-])cc2/C1=C1/Nc2ccccc2C1=O [Example 7, 5-Nitroindirubine]

- IC50 [8, 19]: 6.5 µM
SMILES: O=C1Nc2ccccc2/C1=C1/Nc2ccc(Br)cc2C1=O [Example 8, 5'-Bromoindirubine]

- IC50 [8, 19]: 7 µM
SMILES: O=C1Nc2ccc(Br)cc2/C1=C1/Nc2ccc(Br)cc2C1=O [Example 9, 5,5'-Dibromoindirubine]

SMILES: O=C1Nc2ccccc2C1=C1Nc2ccccc2C1=NO [Example 10, Indirubine-3'-oxime]
- arrest in G1-phase of the cell cycle [13, 21]: low micromolar concentrations
- concentration at which additional arrest at G2/M-phase of the cell cycle became apparent [13, 21]: ≥ 5 µM
- concentration giving significant increase of G2/M arrested cells ([13]; cells arrested in G2/M by Nocodazole treatment, after release of the block): ≥ 5 µM
- IC50 [11]: 0.25 µM
- IC50 [12]: 0.44 µM
- content of cyclin B complex [14]: significantly reduced
- histone H1 phosphorylation as a measure for CDK1/cyclin B activity [14]: inhibit histone H1 phosphorylation
- apoptotic cell death [15]: induction of apoptotic cell death was observed
- IC50 [16]: 3.3 ± 0.7 µM

- IC50 [10, 22]: 0.065 µM
- IC50 [5]: 110 µM
- IC50 [8, 20]: 0.055 µM
- IC50 [8, 19]: 0.055 µM
SMILES: O=C1Nc2ccc(S(=O)(=O)O)cc2C1=C1Nc2ccccc2C1=O [Example 11, Indirubine-5-sulfonic acid]

- IC50 ([8]; read-out: IC50-value for the p34^cdc2/cyclinB complex): 80 µM
SMILES: O=C1Nc2ccccc2/C1=C1\C(=O)Nc2ccccc21 [Example 12, Isoindigo]

SMILES: CN1CC[C@H](c2c(O)cc(O)c3c(=O)cc(-c4ccccc4Cl)oc23)[C@H](O)C1 [Flavopiridol]
- IC50 [17]: 6 µM

SMILES: CN[C@@H]1C[C@H]2O[C@@](C)([C@@H]1OC)n1c3ccccc3c3c4c(c5c6ccccc6n2c5c31)C(=O)NC4 [Staurosporine]
- IC50 [17]: 0.009 µM

SMILES: CN[C@@H]1C[C@H]2O[C@@](C)([C@@H]1OC)n1c3ccccc3c3c4c(c5c6ccccc6n2c5c31)C(=O)N[C@@H]4O [UCN-01]
- IC50 [1]: 0.031 µM

- IC50 ([9]; calculated from dose response curves, Table 4, read-out: IC50 CDK4/ cyclin D1): > 100 µM
- IC50 [10, 22]: > 100 µM
- IC50 [11]: > 1000 µM
- IC50 [12]: 70 µM
- IC50 [8, 20]: > 1000 µM
SMILES: O=C1/C(=C2\Nc3ccccc3C2=O)Nc2ccccc21 [indigo]

SMILES: CN1C(=O)/C(=C2/C(=O)Nc3ccccc32)c2ccccc21 [meisoindigo, N-Methyl-isoindigo]
- complete and partial remission rate [18]: 81.3%
- total response rate [18]: 90.1%
